Assays:
[1] = target: T1, IRAK4 (Interleukin 1 Receptor Associated Kinase 4) (Homo sapiens, UniProt Q9NWZ3); assay: IRAK4 Degradation Assay (Nano-Glo HiBiT); assay type: cell-based; conditions: HiBiT-tagged IRAK4 in HeLa cells, 18 h
T1 construct: the IRAK4 gene was modified, using CRISPR/Cas9 editing, so the expressed IRAK4 protein included an 11 amino acid HiBiT tag; endogenous in cells; host or cells: clonal HeLa line, IRAK4 gene edited by CRISPR/Cas9 (heterozygous)
T1 sequence (Q9NWZ3 1-460): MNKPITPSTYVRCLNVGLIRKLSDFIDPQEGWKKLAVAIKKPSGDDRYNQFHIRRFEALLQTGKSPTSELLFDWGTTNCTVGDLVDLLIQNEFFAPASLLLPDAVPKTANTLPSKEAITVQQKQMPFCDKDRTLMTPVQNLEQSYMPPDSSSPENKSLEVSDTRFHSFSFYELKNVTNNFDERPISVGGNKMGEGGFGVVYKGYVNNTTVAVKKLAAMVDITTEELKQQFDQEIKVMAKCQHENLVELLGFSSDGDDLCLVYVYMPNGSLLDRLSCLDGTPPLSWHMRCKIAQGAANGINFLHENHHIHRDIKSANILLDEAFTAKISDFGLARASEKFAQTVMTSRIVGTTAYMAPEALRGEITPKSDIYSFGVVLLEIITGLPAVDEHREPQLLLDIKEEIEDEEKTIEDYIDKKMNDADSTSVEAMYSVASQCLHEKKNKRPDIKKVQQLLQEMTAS
Excerpt: Degradation of IRAK4 (Interleukin 1 Receptor Associated Kinase 4) protein in Hela cells treated with PROTACs was quantified using the Nano-Glo® HiBiT Lytic Detection System (Promega) in 384 well assay plate format. A clonal HeLa cell line was first established in which the IRAK4 gene was modified, using CRISPR/Cas9 editing, so the expressed IRAK4 protein included an 11 amino acid HiBiT tag at it's amino-terminus. The cell lines were heterozygotic for the HiBiT modification. Cells were cryopreserved in aliquots in 90% foetal bovine serum (FBS), 10% DMSO and stored at −150° C. 10 mM DMSO stock solutions of PROTACs were prepared and diluted across an 11 concentration, 3 fold increment range, and 25 nL dispensed into a white opaque bottomed 384 well assay plate (Thermofisher) using an acoustic ECHO dispenser (Labcyte). […] The intensity of luminescence was measured using a PHERAstar microplate reader (BMG Labtech) and the % IRAK4 protein remaining in each well calculated by normalising the raw luminescence value to the above control wells. Parameters corresponding to the potency and efficacy estimates of the PROTACs were obtained from these normalised luminescence values using software (IDBS ActivityBase). […]

[2] = target: T2, RIPK2 (Homo sapiens, UniProt O43353); assay: RIPK2 Degradation Assay (Nano-Glo HiBiT); assay type: cell-based; conditions: HiBiT-tagged RIPK2 in HEK 293 cells, 18 h
T2 construct: the RIPK2 gene was modified, using CRISPR/Cas9 editing, so the expressed RIPK2 protein included an 11 amino acid HiBiT tag; endogenous in cells; host or cells: clonal HEK 293-derived line, RIPK2 gene edited by CRISPR/Cas9 (heterozygous)
Excerpt: Degradation of RIPK2 protein in human embryonic kidney (HEK 293) cells treated with PROTACs was quantified using the Nano-Glo® HiBiT Lytic Detection System (Promega) in 384 well assay plate format. A clonal HEK 293 derived cell line was first established in which the RIPK2 gene was modified, using CRISPR/Cas9 editing, so the expressed RIPK2 protein included an 11 amino acid HiBiT tag at it's amino-terminus. The cell lines were heterozygotic for the HiBIT modification. Cells were cryopreserved in aliquots in 90% foetal bovine serum (FBS), 10% DMSO and stored at −150° C. 10 mM DMSO stock solutions of PROTACs were prepared and diluted across an 11 concentration, 3 fold increment range, and 25 nL dispensed into a white opaque bottomed 384 well assay plate (Thermofisher) using an acoustic ECHO dispenser (Labcyte). For the assay, a cryopreserved vials of cells was rapidly thawed and suspended in 30 mL of assay medium (FluoroBrite™ DMEM supplemented with 10% heat inactivated FBS, penicillin 50 U/mL and streptomycin 50 ug/mL (Thermofisher)). The cell suspension was centrifuged at 400 g for 5 min and the pellet resuspended in assay medium. 25 μL of cell suspension containing 10,000 cells was dispensed into each well of the assay plate containing the test compounds, which was then incubated for 18 h at 37° C./5% CO2. Control wells were included on each assay plate, with assay medium without cells being the no RIPK2 remaining 100% effect control, and cells treated with DMSO vehicle only, without PROTAC, the 0% effect control. 25 μL of Nano-Glo® HiBiT lysis buffer supplemented with LgBiT protein and Nano-Glo® substrate (Promega) was added to each well and the plate shaken at 500 rpm for 10 min at room temperature. The intensity of luminescence was measured using a PHERAstar microplate reader (BMG Labtech) and the % RIPK2 protein remaining in each well calculated by normalising the raw luminescence value to the above control wells. Parameters corresponding to the potency and efficacy estimates of the PROTACs were obtained from these normalised luminescence values using software (IDBS ActivityBase). These included the DC50 and the Dmax estimates. Two versions of the DC50, called relative DC50 and absolute DC50, were typically generated. These are the inflection point of a fitted 4 parameter sigmoidal response curve and the interpolated concentration of PROTAC corresponding to 50% of the protein being degraded, respectively. The Dmax parameter was the maximum experimentally observed degradation and the asymptote max parameter the fitted response curve asymptote maximum.

T2 sequence (O43353 whole entry): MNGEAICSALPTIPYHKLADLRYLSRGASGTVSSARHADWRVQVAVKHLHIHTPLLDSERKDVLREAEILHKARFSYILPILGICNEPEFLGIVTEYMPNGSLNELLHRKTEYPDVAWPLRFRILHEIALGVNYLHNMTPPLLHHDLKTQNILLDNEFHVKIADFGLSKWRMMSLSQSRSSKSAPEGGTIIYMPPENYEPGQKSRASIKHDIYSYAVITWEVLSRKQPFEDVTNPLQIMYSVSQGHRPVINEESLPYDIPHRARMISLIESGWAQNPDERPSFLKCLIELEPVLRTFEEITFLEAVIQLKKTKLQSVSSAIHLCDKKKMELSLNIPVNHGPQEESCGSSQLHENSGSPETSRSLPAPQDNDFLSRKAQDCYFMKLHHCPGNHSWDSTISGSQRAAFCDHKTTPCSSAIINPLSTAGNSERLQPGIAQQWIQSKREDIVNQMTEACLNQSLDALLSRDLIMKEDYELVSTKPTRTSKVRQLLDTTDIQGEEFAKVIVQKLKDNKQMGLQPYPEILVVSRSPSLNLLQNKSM

SMILES | mean asymptote max [1] | mean relative pDC50 [1] | Mean asymptote max (%) [2] | mean relative pDC50 [2]
CC(C)n1ccc2c(N3CCC(=O)NC3=O)cc(C(=O)NCCOCCOCCN(C)C(=O)c3ccc(-n4cc(NC(=O)c5coc(-c6ccnc(NCC7CC7)c6)n5)c(C(F)F)n4)cc3)cc21 [Example I1, 2-(2-((Cyclopropylmethyl)amino)pyridin-4-yl)-N-(3-(difluoromethyl)-1-(4-((2-(2-(2-(4-(2,4-dioxotetrahydropyrimidin-1(2H)-yl)-1-isopropyl-1H-indole-6-carboxamido)ethoxy)ethoxy)ethyl)(methyl)carbamoyl)phenyl)-1H-pyrazol-4-yl)oxazole-4-carboxamide] | 96% | 8.1 | – | –
CC(C)(C)S(=O)(=O)c1cc2c(Nc3ccc4scnc4c3)ccnc2cc1OCCCCCCCC(=O)N1CCC(n2ccc3c(N4CCC(=O)NC4=O)cccc32)CC1 [Example R1, 1-(1-(1-(8-((4-(Benzo[d]thiazol-5-ylamino)-6-(tert-butylsulfonyl)quinolin-7-yl)oxy)octanoyl)piperidin-4-yl)-1H-indol-4-yl)dihydropyrimidine-2,4(1H,3H)-dione] | – | – | 96% | 8.5

Reference: patent US20250205344A1, “2,4-DIOXOTETRAHYDROPYRIMIDINYL DERATIVES AS DEGRONS IN PROTACS” (GLAXOSMITHKLINE INTELLECTUAL PROPERTY DEVELOPMENT LIMITED, priority 2022, published 2025)
